Assay [1] relates to LTD4 induced bronchoconstriction. The assay is described as follows: in vivo inhibition of LTD4-induced bronchospasm in guinea pigs. Also noted: species or system guinea pig (male Hartley). The note with it: 50 mg/kg intraduodenal; 10 minutes before induction of bronchospasm by LTD4; average of 6 experiments.
Assay [2] concerns synthesis of 5-HETE by rat glycogen-elicited polymorphonuclear leukocytes. Put plainly: inhibition of 5-HETE synthesis by rat glycogen-elicited polymorphonuclear leukocytes. The class given is cell-based, rat (female Wistar). Particulars: Leukocyte; 50 μM unless otherwise stated; rat PMN, A23187 (10 μM) and [14C] arachidonic acid, 10 minutes preincubation. The method, then: This is especially true with respect to 5,12-diHETE, which is also denoted as LTB4 [see Ford-Hitchinson, J. Roy. Soc. Med., 74, 831 (1981)]. The assay of this Example measures the ability of the compounds of the invention to inhibit the synthesis of 5-HETE by rat glycogen-elicited polymorphonuclear leukocytes.
The array is carried out as follows:
Peritoneal PMN are obtained from female Wistar rats (150-250 g) that received an i.p. injection of 6% glycogen (10 mL). After 24 hours, rats are killed by CO2 asphyxiation and peritoneal cells are harvested by peritoneal lavage using Ca^++ and Mg^++ free Hanks' balanced salt solution (HBSS). The peritoneal exudate is centrifuged at 400 g for 10 minutes. After centrifugation, the lavaged fluid is removed and the cell pellet is resuspended in HBSS containing Ca^++ and Mg^++ and 10 mM L-cysteine at a concentration of 2×10^7 cells/mL. To 1 mL portions of cell suspension, test drugs or vehicle are added and incubated at 37° C. for 10 minutes. Following this preincubation, the calcium ionophore (10 μM), A23187, is added together with 0.5 μCi [^14 C] arachidonic acid and further incubated for 10 minutes. The reaction is stopped by the addition of ice cold water (3 mL) and acidifying to pH 3.5. Lipoxygenase products are then extracted twice into diethyl ether. The pooled ether extracts are evaporated to dryness under nitrogen and the residue is redissolved in a small volume of methanol and spotted on aluminum backed pre-coated thin layer chromatographic plates. The samples are then co-chromatographed with authentic reference 5-HETE in the solvent system-hexane:ether:acetic acid (50:50:3). After chromatography, the areas associated with 5-HETE standard are identified by autoradiography, cut out and quantitated by liquid scintillation.
Results are expressed as % inhibition of [^14 C]5-HETE synthesis. [formula]
Testing compounds of the invention in this assay the following results are obtained, where the concentration of the compounds tested is 50 μM unless otherwise stated.

The record followed here is patent US4661596A, “Quinolinyl (or pyridinyl) methoxy substituted naphthalene compounds as antiallergic agents” (American Home Products Corporation, priority 1985, dated 1987).

Regarding `OC1CCCc2ccc(OCc3ccc4ccccc4n3)cc21` (stereo not shown) [Example 1, 1,2,3,4-Tetrahydro-7-(2-quinolinylmethoxy)-1-naphthalenol], the “% Inhibition (Statistical Average) Overflow Volume at 5 min.” value (“% Inhibition” for short) in assay [1] was 56.1%. In addition, in assay [2], the inhibition (commonly the drop in the measured response relative to a control, in per cent) at 50 µM is above 50%. `Oc1ccc2ccc(OCc3ccc4ccccc4n3)cc2c1` [Example 2, 7-(2-quinolinylmethoxy)-2-naphthalenol] gave an inhibition at 50 µM in assay [2] above 50%.

The compound `COc1ccc2ccc(OCc3ccc4ccccc4n3)cc2c1` [Example 3, 2-[[(7-methoxy-2-naphthalenyl)oxy]methyl]quinoline] yielded an inhibition at 50 µM in assay [2] above 50%. Regarding `Oc1ccc2ccc(OCc3nc4ccccc4s3)cc2c1` [Example 4, 7-(2-benzothiazolylmethoxy)-2-naphthalenol], in assay [2], the inhibition at 50 µM was above 50%. On the same count and under the same terms, to `Oc1ccc2ccc(OCc3ccccn3)cc2c1` [Example 5, 7-(2-pyridinylmethoxy)-2-naphthalenol] belongs above 50%.

The compound `Nc1cccc2ccc(OCc3ccc4ccccc4n3)cc12` [Example 6, 7-(2-quinolinylmethoxy)-1-naphthalenamine] returned an inhibition at 50 µM in assay [2] above 50%. For `Nc1ccc2ccc(OCc3ccc4ccccc4n3)cc2c1` [Example 7, 7-(2-quinolinylmethoxy)-2-naphthalenamine], in assay [1], the “% Inhibition” value was determined as 88.7%. Besides, the inhibition at 50 µM in assay [2] was above 50%. The like results for `CCS(=O)(=O)Nc1ccc2ccc(OCc3ccc4ccccc4n3)cc2c1` [Example 8, N-[7-(2-quinolinylmethoxy)-2-naphthalenyl]ethane sulfonamide] were, in that order, 90.6% and above 50%. `C=C1CCCc2ccc(OCc3ccc4ccccc4n3)cc21` [Example 9, 2-[[(5,6,7,8-tetrahydro-8-methylene-2-naphthalenyl)oxy]methyl]quinoline] displayed an inhibition at 50 µM in assay [2] above 50%. As for `O=S(=O)(Nc1ccc2ccc(OCc3ccc4ccccc4n3)cc2c1)C(F)(F)F` [Example 10, N-[7-(2-quinolinylmethoxy)-2-naphthalenyl]trifluoromethane sulfonamide], the “% Inhibition” value in assay [1] is reported as 99.0%.
